Results: the CombiSolv-Exp solvation set (Vermeire and Green 2021)

Experiment: solvent given as SMILES

CCCCCCC(C)=O
Details | solvation free energy, 298 K [kcal/mol]
in C1COCCO1 | -6.83
in CCCCCCC | -5.68
in CN(C)C=O | -6.23
in ClC(Cl)(Cl)Cl | -6.7
in NC=O | -5.06
in O | -2.92

O=C(O)CCCCC(=O)O
Details | solvation free energy, 298 K [kcal/mol]
in CC(C)(C)O | -13.7
in CC(C)=O | -13.1
in CC(C)O | -13.5
in CCCCO | -13.2
in CCCO | -13.7
in CCO | -13.7
in CO | -14
in O | -12.9
in O=C1CCCCC1 | -12.9

CCCCCCCCCCCC(=O)OC
Details | solvation free energy, 298 K [kcal/mol]
in O | -2.91

CC(C)Nc1nc(Cl)nc(NC(C)C)n1
Details | solvation free energy, 298 K [kcal/mol]
in O | -9.55

O=NN1CCCCC1
Details | solvation free energy, 298 K [kcal/mol]
in O | -6.34

Clc1ccccc1Cl
Details | solvation free energy, 298 K [kcal/mol]
in C1CCOC1 | -7.11
in C1COCCO1 | -7.01
in CCCCCC | -6.14
in CCCCCCC | -6.01
in CCCCCCCCCCCCCCCC | -6.04
in CCCCCCCCO | -5.95
in CN(C)C=O | -6.82
in ClC(Cl)(Cl)Cl | -6.79
in N#Cc1ccccc1 | -6.82
in NC=O | -4.55
in O | -1.4

CC(C)(C)c1ccccc1
Details | solvation free energy, 298 K [kcal/mol]
in C1CCOC1 | -6.93
in CC#N | -5.86
in CC(C)O | -5.63
in CO | -5.52
in O | -0.42

O=Nc1ccc2ccccc2c1O
Details | solvation free energy, 298 K [kcal/mol]
in O | -8.79

CCCCOC(=O)c1ccccc1C(=O)OCc1ccccc1
Details | solvation free energy, 298 K [kcal/mol]
in O | -9.55

O=C(O)c1cccc(C(=O)O)c1
Details | solvation free energy, 298 K [kcal/mol]
in CC(C)O | -13.8
in CCC(C)O | -13.3
in CCCCCCO | -13.2
in CCCCO | -13.5
in CCCO | -13.6
in CCCOC(C)=O | -12.5
in CN1CCCC1=O | -15.5
in CO | -14.1
in O | -11.3

CC[N+](=O)[O-]
Details | solvation free energy, 298 K [kcal/mol]
in C=CCCCCCCCCCCCCCC | -3.33
in CCC(C)=O | -5.25
in CCCC(C)C | -4.09
in CCCCCCC | -3.34
in CCCCCCCC | -3.37
in CCCCCCCCCCCCCCCC | -3.17
in CCCCCCCCO | -3.93
in COC(C)=O | -5.46
in O | -3.72
in [2H]O[2H] | -3.75

COc1cc(C=O)ccc1O
Details | solvation free energy, 298 K [kcal/mol]
in O | -8.76

CCCO
Details | solvation free energy, 298 K [kcal/mol]
in Brc1ccccc1 | -3.66
in C1CCOC1 | -5.22
in C1COCCO1 | -4.52
in C=CCCCCCCCCCCCCCC | -2.96
in CC#N | -4.84
in CC(C)(C)O | -5.55
in CC(C)CC(C)(C)C | -3
in CC(C)CCCC(C)CCCC(C)CCCCC(C)CCCC(C)CCCC(C)C | -2.6
in CC(C)CO | -5.44
in CC(C)O | -5.53
in CC(C)OC(C)C | -4.39
in CCC1CO1 | -5.09
in CCC(C)=O | -4.97
in CCCC(C)O | -5.34
in CCCCC(CC)COC(=O)CCCCC(=O)OCC(CC)CCCC | -4.07
in CCCCCC | -2.99
in CCCCCCC | -2.97
in CCCCCCCC | -2.91
in CCCCCCCCC=CCCCCCCCC(=O)OCC(COC(=O)CCCCCCCC=CCCCCCCCC)OC(=O)CCCCCCCC=CCCCCCCCC | -3.96
in CCCCCCCCCC | -2.76
in CCCCCCCCCCCCCCCC | -2.7
in CCCCCCCCCCO | -4.8
in CCCCCCCCO | -5.02
in CCCCCO | -5.43
in CCCCO | -5.22
in CCCCOC(C)=O | -4.65
in CCCOCCC | -4.2
in CCO | -5.69
in CCOC(=O)c1ccccc1C(=O)OCC | -4.09
in CCOCCO | -5.33
in CCOP(=O)(OCC)OCC | -5.39
in CN1CCCC1=O | -5.69
in CN1CCN(C)C1=O | -5.51
in CN(C)C=O | -5.57
in CO | -5.92
in COC(C)(C)C | -4.6
in COC(C)=O | -4.88
in Cc1ccc(C)cc1 | -3.73
in Cc1cccc(C)c1 | -3.72
in ClC(Cl)(Cl)Cl | -3.53
in Clc1ccccc1 | -3.83
in FC(F)(F)C(F)(F)C(F)(F)C(F)(F)C(F)(F)C(F)(F)C(F)(F)F | -1.69
in FC(F)(F)C(F)(F)C(F)(F)C(F)(F)C(F)(F)C(F)(F)F | -1.74
in NC=O | -4.84
in O | -4.88
in O=CN1CCOCC1 | -5.02
in OCC(O)CO | -4.37
in OCCOCCO | -5.2
in [2H]O[2H] | -4.95
in c1ccccc1 | -3.97

COc1ccccc1
Details | solvation free energy, 298 K [kcal/mol]
in CCCCCCC | -5.35
in CCCCCCCCCCCCCCCC | -5.21
in CCCCCCCCO | -5.46
in O | -2.53
in [2H]O[2H] | -2.62

c1ccoc1
Details | solvation free energy, 298 K [kcal/mol]
in CC(=O)N(C)C | -3.72
in CCCCN(C=O)CCCC | -3.27
in CNC(C)=O | -3.23
in O | -0.9

O=C(O)c1cccnc1Nc1cccc(C(F)(F)F)c1
Details | solvation free energy, 298 K [kcal/mol]
in C1COCCO1 | -17.9
in CC(C)=O | -17.7
in CCCCCCCCO | -17.1
in CCOC(C)=O | -17.3
in CCOCC | -16.5
in CN(C)C=O | -19.1
in Clc1ccccc1 | -15.5
in NC=O | -16.1
in O | -12.8

CC1=CCC(=C(C)C)CC1
Details | solvation free energy, 298 K [kcal/mol]
in O | 0.16

BrCCBr
Details | solvation free energy, 298 K [kcal/mol]
in C1COCCO1 | -5.84
in ClC(Cl)(Cl)Cl | -5.33
in O | -2.2

C=CCCC=C
Details | solvation free energy, 298 K [kcal/mol]
in C=CCCCCCCCCCCCCCC | -3.36
in CCCCCCCCCCCCCCCC | -3.48
in CN1CCCC1=O | -3.23
in CS(C)=O | -2.74
in O | 0.97

CCCCC(=O)CCCC
Details | solvation free energy, 298 K [kcal/mol]
in O | -2.64

C=CC=O
Details | solvation free energy, 298 K [kcal/mol]
in CCCCCO | -3.22
in CCCCO | -3.21
in O | -3.16

CCC(C)(C)O
Details | solvation free energy, 298 K [kcal/mol]
in CC(=O)CC(C)=O | -5.07
in CCCCCCC | -3.85
in CCCCCCCC | -3.99
in CCCCCCCCCC | -3.99
in O | -4.43

COc1cc(C(C)=O)cc(-c2cc(C(C)=O)cc(OC)c2O)c1O
Details | solvation free energy, 298 K [kcal/mol]
in CCC(C)=O | -21.7
in CCCO | -21.1
in Cc1ccccc1 | -20.8
in ClC=CCl | -22
in O | -19.2

C=C(C)C1CCC2(CO)CCC3(C)C(CCC4C5(C)CCC(O)C(C)(C)C5CCC43C)C12 (stereo not drawn)
Details | solvation free energy, 298 K [kcal/mol]
in CC(C)=O | -27.9
in CCCCCCO | -27.3
in CCCCCO | -27.6
in CCCCO | -28
in CCCO | -27.8
in CCO | -27.7
in CCOC(C)=O | -27.8
in CO | -27.3
in COC(C)=O | -27.4
in ClC(Cl)Cl | -28.4
in ClCCl | -27.7
in O | -14.2

CCOCOCC
Details | solvation free energy, 298 K [kcal/mol]
in CCCCCl | -4.67
in ClC(Cl)(Cl)Cl | -4.97
in ClCCl | -5.47
in O | -2.96

Cc1ccc(C2(C)CCCC2(C)C)cc1 (stereo not drawn)
Details | solvation free energy, 298 K [kcal/mol]
in O | -0.61

OC1CCCCCC1
Details | solvation free energy, 298 K [kcal/mol]
in O | -5.48

CN1C(C(=O)Nc2ccccn2)=C(O)c2ccccc2S1(=O)=O
Details | solvation free energy, 298 K [kcal/mol]
in CN(C)C=O | -21
in NC=O | -19.3
in O | -15.8

COC(=O)c1ccc(O)cc1
Details | solvation free energy, 298 K [kcal/mol]
in C1CCOC1 | -12.5
in C1COCCO1 | -12.3
in CC(C)(C)O | -12.2
in CC(C)=O | -12.3
in CC(C)CO | -12
in CCC(C)O | -12.2
in CCCCCC | -7.42
in CCCCCCCCCCO | -11.4
in CCCCCCO | -11.9
in CCCCCO | -12
in CCCCO | -12.1
in CCCCOC(C)=O | -11.8
in CCCCOCCCC | -10.7
in CCCO | -12.2
in CCOC(C)=O | -11.9
in CCOCC | -11.7
in CNC=O | -12.7
in COC(C)(C)C | -11.8
in NC=O | -12.1
in O | -9.35
